Measurements taken from patent US10183024B2, “Crystalline forms of ibrutinib” (Apotex Inc., priority 2016, dated 2019).

What was measured:
[1] = cited from earlier work
[2] = PXRD study of crystal form stability on storage in stability chambers; assay type: physicochemical
Procedure: Ibrutinib Form APO-I can be characterized by a PXRD diffractogram comprising, among other peaks, characteristic peaks, expressed in degrees 2θ (±0.2°), at 5.1°, 7.6° and 12.5°. Preferably, the PXRD diffractogram further comprises at least three peaks, expressed in degrees 2θ (±0.2°), selected from the group consisting of: 10.1°, 11.1°, 14.2°, 15.4°, 16.3°, 17.3° and 18.7°. More preferably, the PXRD diffractogram further comprises peaks, expressed in degrees 2θ (±0.2°), at 10.1°, 11.1°, 14.2°, 15.4°, 16.3°, 17.3° and 18.7°. PXRD studies of capped and uncapped samples of Ibrutinib Form APO-I have shown that this crystal form is stable following storage in stability chambers maintained at 27° C./60% RH for at least 31 days and 40° C./75% RH for at least 21 days.
Ibrutinib Form APO-II can be characterized by a PXRD diffractogram comprising, among other peaks, characteristic peaks, expressed in degrees 2θ (±0.2°), at 6.4°, 10.1° and 12.8°. Preferably, the PXRD diffractogram further comprises at least three peaks, expressed in degrees 2θ (±0.2°), selected from the group consisting of: 13.8°, 17.6°, 18.4°, 19.4°, 20.4°, 21.0°, 21.7°, 23.2°, 24.1° and 24.9°. More preferably, the PXRD diffractogram further comprises peaks, expressed in degrees 2θ (±0.2°), at 13.8°, 17.6°, 18.4°, 19.4°, 20.4°, 21.0°, 21.7°, 23.2°, 24.1° and 24.9°. PXRD studies of capped and uncapped samples of Ibrutinib Form APO-II have shown that this crystal form is stable following storage in stability chambers maintained at 27° C./60% RH and 40° C./75% RH for at least 25 days.
Ibrutinib Form APO-IV can be characterized by a PXRD diffractogram comprising, among other peaks, characteristic peaks, expressed in degrees 2θ (±0.2°), at 6.4°, 10.2° and 12.9°. Preferably, the PXRD diffractogram further comprises at least three peaks, expressed in degrees 2θ (±0.2°), selected from the group consisting of: 13.9°, 17.7°, 18.4°, 19.4°, 20.5°, 21.3°, 21.8°, 23.2°, 24.2° and 24.9°. More preferably, the PXRD diffractogram further comprises peaks, expressed in degrees 2θ (±0.2°), at 13.9°, 17.7°, 18.4°, 19.4°, 20.5°, 21.3°, 21.8°, 23.2°, 24.2° and 24.9°. PXRD studies of uncapped samples of Ibrutinib Form APO-IV have shown that this crystal form is stable following storage in a stability chambers maintained at 40° C./75% RH for at least 11 months.
Data were acquired on a PANanalytical X-Pert Pro MPD diffractometer with fixed divergence slits and an X'Celerator RTMS detector. The diffractometer was configured in Bragg-Brentano geometry; data was collected over a 2-theta range of 3° to 40° using CuKα radiation at a power of 40 mA and 45 kV. CuKβ radiation was removed using a divergent beam nickel filter. A step size of 0.017° was used. Samples were rotated to reduce preferred orientation effects. Samples were lightly ground prior to analysis.

[3] = 27° C./60% RH, capped and uncapped samples
[4] = 40° C./75% RH, capped and uncapped samples

Structure (SMILES)	crystal form stable following storage (PXRD) [2, 3]	crystal form stable following storage (PXRD) [2, 4]	also measured
C=CC(=O)N1CCCC(n2nc(-c3ccc(Oc4ccccc4)cc3)c3c(N)ncnc32)C1 (stereo not shown) [Form A]	–	–	solubility ([1]; drug substance in IMBRUVICA, per AusPAR): pH dependent solubility
C=CC(=O)N1CCCC(n2nc(-c3ccc(Oc4ccccc4)cc3)c3c(N)ncnc32)C1 (stereo not shown) [Form APO-I]	at least 31 days	at least 21 days	–
C=CC(=O)N1CCCC(n2nc(-c3ccc(Oc4ccccc4)cc3)c3c(N)ncnc32)C1 (stereo not shown) [Form B]	–	–	aqueous solubility ([1]; reported for other anhydrous forms): low aqueous solubility
C=CC(=O)N1CCCC(n2nc(-c3ccc(Oc4ccccc4)cc3)c3c(N)ncnc32)C1 (stereo not shown) [Form APO-IV]	–	–	crystal form stable following storage (PXRD) ([2]; 40° C./75% RH, uncapped samples): at least 11 months
C=CC(=O)N1CCCC(n2nc(-c3ccc(Oc4ccccc4)cc3)c3c(N)ncnc32)C1 (stereo not shown) [Form APO-II]	at least 25 days	at least 25 days	–
